Marks after values point to notes of the source that are not given here.
What was measured:
[1] = system: rabbit corneal wound model; assay: Corneal wound healing promotion action 1 (in vivo), wound of approximately 6 mm; settings: 5 μM eye drop, 30 μl instillation
Procedure: Using a male Japanese white rabbit, a wound of approximately 6 mm in diameter was produced in the cornea by inducing corneal epithelial abrasion in accordance with the method of Cintron et al. (Ophthalmic Res., 11, pp. 90-96 (1979)). The wound area was measured using the fluorescein-stained area as an index. The effects of the test compound on corneal wound healing were examined.
The eye drops containing the respective concentrations of the test compound were instilled (30 μl at a time) at 0, 3, 6, 9, 12, 18, 24, 27, 30, 33, 36, 42, and 48 hours after inducing corneal epithelial abrasion. In measuring the wound area, fluorescein staining was carried out and a photograph of the cornea was measured. The fluorescein-stained area of the photographed cornea was computed using an image analysis processing system.
(§1) In Tables 1 and 2, the respective values indicate the mean value±standard deviation (n=6). Statistical analysis was carried out using Dunnett's multiple comparison with respect to PBS with the area of the corneal wound portion immediately after (0 hours after) corneal epithelial abrasion being set to 100% (*p<0.05, **p<0.01; vs. control).

[2] = system: rabbit corneal wound model; assay: Corneal wound healing promotion action 2 (in vivo), wound of approximately 8 mm; settings: 0.3% eye drop, 25 μl instillation
Procedure: Using the same method as (2) above, corneal epithelial abrasion was induced in a Japanese white rabbit to produce a wound of approximately 8 mm in diameter in the cornea. The wound area was measured using the fluorescein-stained area as an index to examine the effects on corneal wound healing.
The eye drops containing the respective concentrations of the test compound were instilled (25 μl at a time) at 0, 6, 12, 18, 24, 30, 36, 42, 48, and 54 hours after induction corneal epithelial abrasion. In measuring the wound area, fluorescein staining was carried out and a photograph of the cornea was measured. The fluorescein-stained area of the photographed cornea was computed using an image analysis processing system.
as §1, with “Tables 3” for “Tables 1”, “and 4,” for “and 2,”, “to physiological saline” for “to PBS”

| Substance | Healing ratio (%) ([1]; 0 hr (baseline)) | Healing ratio (%) ([1]; 6 hr) | Healing ratio (%) ([1]; 12 hr) | Healing ratio (%) ([1]; 24 hr) | Healing ratio (%) ([1]; 36 hr) | Healing ratio (%) ([1]; 48 hr) | Healing ratio (%) ([2]; 0 hr (baseline)) | Healing ratio (%) ([2]; 12 hr) | Healing ratio (%) ([2]; 18 hr) | Healing ratio (%) ([2]; 24 hr) | Healing ratio (%) ([2]; 30 hr) |
| --- | --- | --- | --- | --- | --- | --- | --- | --- | --- | --- | --- |
| EGF: polypeptide with a molecular weight of 6000, mitosis-promoting growth factor for corneal epithelium | 0% | 14.49 ± 3.42** % | 31.63 ± 1.29** % | 70.78 ± 6.91** % | 96.41 ± 3.97* % | 99.58 ± 1.03% | – | – | – | – | – |
| hyaluronic acid | – | – | – | – | – | – | 0% | 13.98 ± 4.88* % | 28.45 ± 3.37* % | 60.78 ± 8.07** % | 60.78 ± 8.07* % |

From patent US20100099629A1, “OPHTHALMOLOGICAL COMPOSITION” (Nihon Tenganyaku Kenkyusho Co., LTD., priority 2002, published 2010)
